From patent US10889587B2, “Tebipenem pivoxil crystalline forms, compositions including the same, methods of manufacture, and methods of use” (SPERO THERAPEUTICS, INC., priority 2017, dated 2021) come the findings set out here.

Series [1] is described as follows: GVS (Gravimetric Vapor Sorption) and XRPD analysis post GVS. In kind it is physicochemical.
The nature of series [2]: Storage stability: XRPD and HPLC analysis post storage at 40° C./75% RH or 25° C./97% RH. The format is physicochemical. To be noted: three days. The text has this:
Samples were run under ambient conditions as flat plate specimens using powder as received. The sample was gently packed into a cavity cut into polished, zero-background (510) silicon wafer. The sample was rotated in its own plane during analysis.

As for `CS(=O)(=O)O.C[C@@H](O)[C@H]1C(=O)N2C(C(=O)OCOC(=O)C(C)(C)C)=C(SC3CN(C4=NCCS4)C3)[C@H](C)[C@H]12` [Example 8, Tebeipenem Pivoxil Methane Sulfonate Salt (MSA)], the “Hygroscopicity by GVS” value in series [1] was “hygroscopic”. Also, the GVS uptake in series [1] (from 0 to 90% RH) worked out at 10.0%.

With `CC(O)C1C(=O)N2C(C(=O)OCOC(=O)C(C)(C)C)=C(SC3CN(C4=NCCS4)C3)C(C)C12.O=S(=O)(O)CCS(=O)(=O)O` (stereo not drawn) [Example 13, Tebipenem Pivoxil Edisylate (EDSA) Salt], the Appearance post storage result in series [2] is on record as “deliquesced”.
